Test results from ChEMBL document CHEMBL5291721, “A preclinical secondary pharmacology resource illuminates target-adverse drug reaction associations of marketed drugs” (Nat Commun, 2023).

Key:
[1] = target: Vasopressin V1a receptor (Homo sapiens, UniProt P37288)
[2] = target: T1, Progesterone receptor (Homo sapiens, UniProt P06401); assay type: functional
T1 sequence (P06401 whole entry): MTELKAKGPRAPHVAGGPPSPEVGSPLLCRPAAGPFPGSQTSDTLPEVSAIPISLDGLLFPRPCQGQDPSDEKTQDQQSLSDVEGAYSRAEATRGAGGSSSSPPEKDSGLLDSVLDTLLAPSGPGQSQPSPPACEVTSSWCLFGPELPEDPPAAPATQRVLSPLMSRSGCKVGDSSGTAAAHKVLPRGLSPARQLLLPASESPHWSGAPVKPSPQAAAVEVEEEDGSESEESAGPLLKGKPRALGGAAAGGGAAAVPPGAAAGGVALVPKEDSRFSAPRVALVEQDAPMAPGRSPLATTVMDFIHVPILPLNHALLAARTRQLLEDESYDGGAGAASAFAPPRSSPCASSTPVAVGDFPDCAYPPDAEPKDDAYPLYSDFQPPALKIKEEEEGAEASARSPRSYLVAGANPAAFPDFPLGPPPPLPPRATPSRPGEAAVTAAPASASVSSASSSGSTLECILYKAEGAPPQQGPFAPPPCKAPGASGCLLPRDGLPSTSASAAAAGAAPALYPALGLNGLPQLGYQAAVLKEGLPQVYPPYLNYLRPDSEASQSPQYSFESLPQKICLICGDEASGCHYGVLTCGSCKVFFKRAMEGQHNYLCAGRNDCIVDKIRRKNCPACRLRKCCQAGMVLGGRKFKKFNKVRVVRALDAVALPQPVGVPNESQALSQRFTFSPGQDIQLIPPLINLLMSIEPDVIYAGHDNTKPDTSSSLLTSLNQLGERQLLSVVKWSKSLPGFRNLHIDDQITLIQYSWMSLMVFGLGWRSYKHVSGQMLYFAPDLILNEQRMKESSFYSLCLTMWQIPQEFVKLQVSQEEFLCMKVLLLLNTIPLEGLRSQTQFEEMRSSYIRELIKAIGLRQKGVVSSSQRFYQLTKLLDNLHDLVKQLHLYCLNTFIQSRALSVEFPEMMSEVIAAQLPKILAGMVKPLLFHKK

[3] = target: Sodium-dependent noradrenaline transporter (Homo sapiens, UniProt P23975)
[4] = target: Voltage-dependent L-type calcium channel subunit alpha-1C (Rattus norvegicus, UniProt P22002); assay type: functional
[5] = target: T2, Adenosine receptor A1 (Homo sapiens, UniProt P30542)
T2 sequence (P30542 whole entry): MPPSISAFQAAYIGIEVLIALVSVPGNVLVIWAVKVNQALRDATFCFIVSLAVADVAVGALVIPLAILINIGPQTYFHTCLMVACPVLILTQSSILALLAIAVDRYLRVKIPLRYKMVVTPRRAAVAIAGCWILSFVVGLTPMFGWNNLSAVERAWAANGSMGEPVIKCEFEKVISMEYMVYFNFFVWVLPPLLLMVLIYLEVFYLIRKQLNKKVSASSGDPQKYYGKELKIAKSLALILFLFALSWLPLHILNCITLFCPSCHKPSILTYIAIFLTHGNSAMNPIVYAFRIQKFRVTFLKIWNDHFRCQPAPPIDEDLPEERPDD

[6] = target: T3, Alpha-2B adrenergic receptor (Homo sapiens, UniProt P18089)
T3 sequence (P18089 whole entry): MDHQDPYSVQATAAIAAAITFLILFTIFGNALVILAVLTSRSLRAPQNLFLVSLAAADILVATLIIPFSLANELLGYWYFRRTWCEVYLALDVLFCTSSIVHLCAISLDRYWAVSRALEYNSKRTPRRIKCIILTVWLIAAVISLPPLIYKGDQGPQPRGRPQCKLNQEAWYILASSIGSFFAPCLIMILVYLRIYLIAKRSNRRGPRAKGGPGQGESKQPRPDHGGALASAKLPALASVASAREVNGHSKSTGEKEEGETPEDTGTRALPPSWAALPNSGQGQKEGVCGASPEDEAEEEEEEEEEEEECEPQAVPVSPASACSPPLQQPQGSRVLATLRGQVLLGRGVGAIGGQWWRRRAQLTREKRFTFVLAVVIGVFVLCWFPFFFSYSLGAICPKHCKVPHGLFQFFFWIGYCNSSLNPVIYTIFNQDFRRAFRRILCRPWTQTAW

[7] = target: Gamma-aminobutyric acid receptor subunit alpha-1 (Rattus norvegicus, UniProt P62813); assay type: functional
[8] = target: Cannabinoid receptor 1 (Homo sapiens, UniProt P21554); assay type: functional, cell-based
[9] = target: T4, Type-1 angiotensin II receptor (Homo sapiens, UniProt P30556)
T4 sequence (P30556 whole entry): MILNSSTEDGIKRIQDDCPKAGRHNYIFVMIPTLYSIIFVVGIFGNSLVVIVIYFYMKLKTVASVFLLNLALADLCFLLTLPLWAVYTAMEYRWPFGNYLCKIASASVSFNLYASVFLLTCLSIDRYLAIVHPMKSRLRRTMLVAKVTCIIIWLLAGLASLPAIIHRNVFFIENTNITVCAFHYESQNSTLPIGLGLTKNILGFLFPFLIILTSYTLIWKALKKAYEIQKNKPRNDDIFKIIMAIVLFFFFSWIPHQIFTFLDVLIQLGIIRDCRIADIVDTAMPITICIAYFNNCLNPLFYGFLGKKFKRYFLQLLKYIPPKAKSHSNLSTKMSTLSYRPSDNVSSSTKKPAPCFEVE

[10] = target: Vasopressin V2 receptor (Homo sapiens, UniProt P30518)
[11] = target: T1, Progesterone receptor; assay type: functional; remark: listed apart in the source
[12] = target: T5, 5-hydroxytryptamine receptor 1A (Homo sapiens, UniProt P08908); assay type: functional, cell-based
T5 sequence (P08908 whole entry): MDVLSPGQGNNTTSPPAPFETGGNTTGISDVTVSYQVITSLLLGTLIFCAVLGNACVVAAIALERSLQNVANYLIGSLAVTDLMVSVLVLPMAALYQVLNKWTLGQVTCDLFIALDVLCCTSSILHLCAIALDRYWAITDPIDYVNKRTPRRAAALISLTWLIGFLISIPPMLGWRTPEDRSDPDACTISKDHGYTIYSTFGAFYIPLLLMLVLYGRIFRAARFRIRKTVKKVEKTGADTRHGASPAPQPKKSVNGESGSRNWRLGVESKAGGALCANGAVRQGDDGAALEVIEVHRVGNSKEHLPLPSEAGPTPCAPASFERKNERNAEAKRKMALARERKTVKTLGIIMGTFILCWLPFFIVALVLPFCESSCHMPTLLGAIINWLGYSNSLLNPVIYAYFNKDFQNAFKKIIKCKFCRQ

[13] = target: T1, Progesterone receptor
Further: assay procedure not described here.

Sequence of Vasopressin V2 receptor (P30518 whole entry): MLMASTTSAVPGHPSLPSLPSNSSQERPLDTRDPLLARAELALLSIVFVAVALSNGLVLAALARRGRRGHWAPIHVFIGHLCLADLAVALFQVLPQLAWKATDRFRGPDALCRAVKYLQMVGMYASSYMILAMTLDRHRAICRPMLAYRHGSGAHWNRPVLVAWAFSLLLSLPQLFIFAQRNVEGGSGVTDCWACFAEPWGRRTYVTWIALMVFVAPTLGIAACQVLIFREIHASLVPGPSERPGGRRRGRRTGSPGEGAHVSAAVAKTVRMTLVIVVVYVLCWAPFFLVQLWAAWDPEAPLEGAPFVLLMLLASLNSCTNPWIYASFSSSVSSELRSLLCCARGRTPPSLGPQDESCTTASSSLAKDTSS
Sequence of Vasopressin V1a receptor (P37288 whole entry): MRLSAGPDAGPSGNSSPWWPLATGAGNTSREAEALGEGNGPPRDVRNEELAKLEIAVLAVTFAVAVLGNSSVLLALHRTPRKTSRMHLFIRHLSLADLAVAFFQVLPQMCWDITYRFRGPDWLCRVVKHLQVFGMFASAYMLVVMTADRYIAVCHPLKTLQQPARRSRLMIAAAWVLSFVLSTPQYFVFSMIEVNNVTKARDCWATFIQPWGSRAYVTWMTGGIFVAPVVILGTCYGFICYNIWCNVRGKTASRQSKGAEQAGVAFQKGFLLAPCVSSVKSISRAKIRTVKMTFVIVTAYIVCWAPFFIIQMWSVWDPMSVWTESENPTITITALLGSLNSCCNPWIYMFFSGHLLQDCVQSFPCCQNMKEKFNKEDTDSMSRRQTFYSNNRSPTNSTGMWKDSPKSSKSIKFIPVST
Sequence of Voltage-dependent L-type calcium channel subunit alpha-1C (P22002 whole entry): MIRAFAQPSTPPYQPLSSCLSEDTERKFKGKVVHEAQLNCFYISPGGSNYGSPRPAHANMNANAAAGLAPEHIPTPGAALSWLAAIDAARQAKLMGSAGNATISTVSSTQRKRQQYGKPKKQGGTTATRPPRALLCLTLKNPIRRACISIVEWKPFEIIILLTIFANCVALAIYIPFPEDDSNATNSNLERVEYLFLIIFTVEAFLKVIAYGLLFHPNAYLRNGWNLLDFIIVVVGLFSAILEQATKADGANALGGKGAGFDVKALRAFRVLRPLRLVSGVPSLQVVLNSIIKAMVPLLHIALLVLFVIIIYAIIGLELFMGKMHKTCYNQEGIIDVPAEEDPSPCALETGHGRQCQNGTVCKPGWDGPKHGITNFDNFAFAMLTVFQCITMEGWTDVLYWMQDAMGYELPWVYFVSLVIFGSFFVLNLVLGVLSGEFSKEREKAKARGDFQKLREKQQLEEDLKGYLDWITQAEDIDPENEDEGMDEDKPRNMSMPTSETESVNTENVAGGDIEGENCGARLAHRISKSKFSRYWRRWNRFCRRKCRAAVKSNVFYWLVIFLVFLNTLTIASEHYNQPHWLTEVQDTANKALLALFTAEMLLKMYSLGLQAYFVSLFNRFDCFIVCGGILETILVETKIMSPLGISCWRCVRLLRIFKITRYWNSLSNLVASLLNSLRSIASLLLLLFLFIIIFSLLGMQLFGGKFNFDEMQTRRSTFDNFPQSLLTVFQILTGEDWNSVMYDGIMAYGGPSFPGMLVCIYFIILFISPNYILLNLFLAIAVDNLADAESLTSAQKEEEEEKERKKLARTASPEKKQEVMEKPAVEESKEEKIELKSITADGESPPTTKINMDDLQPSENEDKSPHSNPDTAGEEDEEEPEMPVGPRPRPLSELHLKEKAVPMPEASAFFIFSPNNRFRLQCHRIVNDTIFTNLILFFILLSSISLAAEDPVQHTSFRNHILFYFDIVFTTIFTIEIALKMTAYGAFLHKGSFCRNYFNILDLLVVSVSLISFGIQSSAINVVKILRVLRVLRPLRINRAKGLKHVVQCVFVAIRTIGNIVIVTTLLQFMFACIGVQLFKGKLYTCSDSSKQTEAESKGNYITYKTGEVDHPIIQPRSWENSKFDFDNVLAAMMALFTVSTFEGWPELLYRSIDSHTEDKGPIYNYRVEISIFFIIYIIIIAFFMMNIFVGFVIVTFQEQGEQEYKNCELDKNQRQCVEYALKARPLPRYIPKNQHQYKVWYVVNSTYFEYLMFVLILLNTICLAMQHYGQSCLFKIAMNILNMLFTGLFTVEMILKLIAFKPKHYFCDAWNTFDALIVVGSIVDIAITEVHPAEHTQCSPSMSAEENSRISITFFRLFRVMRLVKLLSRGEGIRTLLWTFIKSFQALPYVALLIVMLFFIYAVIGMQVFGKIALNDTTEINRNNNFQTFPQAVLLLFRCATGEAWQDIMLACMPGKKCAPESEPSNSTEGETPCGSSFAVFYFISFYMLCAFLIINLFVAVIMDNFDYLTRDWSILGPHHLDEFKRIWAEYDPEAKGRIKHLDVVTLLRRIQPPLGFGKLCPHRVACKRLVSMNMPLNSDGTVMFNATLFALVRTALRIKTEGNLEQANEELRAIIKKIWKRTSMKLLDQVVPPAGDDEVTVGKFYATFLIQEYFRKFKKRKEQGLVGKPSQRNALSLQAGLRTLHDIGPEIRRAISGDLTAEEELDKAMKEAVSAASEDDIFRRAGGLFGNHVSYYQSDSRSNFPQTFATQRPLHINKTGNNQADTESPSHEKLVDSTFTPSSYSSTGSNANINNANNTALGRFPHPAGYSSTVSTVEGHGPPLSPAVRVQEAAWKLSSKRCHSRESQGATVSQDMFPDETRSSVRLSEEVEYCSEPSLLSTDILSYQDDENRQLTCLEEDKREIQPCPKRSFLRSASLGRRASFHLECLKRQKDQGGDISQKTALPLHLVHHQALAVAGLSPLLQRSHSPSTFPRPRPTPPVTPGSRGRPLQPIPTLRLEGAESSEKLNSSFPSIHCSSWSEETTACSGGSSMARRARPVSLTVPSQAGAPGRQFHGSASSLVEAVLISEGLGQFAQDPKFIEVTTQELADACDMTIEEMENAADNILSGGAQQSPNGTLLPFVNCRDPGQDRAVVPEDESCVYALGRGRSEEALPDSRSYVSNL
Sequence of Cannabinoid receptor 1 (P21554 whole entry): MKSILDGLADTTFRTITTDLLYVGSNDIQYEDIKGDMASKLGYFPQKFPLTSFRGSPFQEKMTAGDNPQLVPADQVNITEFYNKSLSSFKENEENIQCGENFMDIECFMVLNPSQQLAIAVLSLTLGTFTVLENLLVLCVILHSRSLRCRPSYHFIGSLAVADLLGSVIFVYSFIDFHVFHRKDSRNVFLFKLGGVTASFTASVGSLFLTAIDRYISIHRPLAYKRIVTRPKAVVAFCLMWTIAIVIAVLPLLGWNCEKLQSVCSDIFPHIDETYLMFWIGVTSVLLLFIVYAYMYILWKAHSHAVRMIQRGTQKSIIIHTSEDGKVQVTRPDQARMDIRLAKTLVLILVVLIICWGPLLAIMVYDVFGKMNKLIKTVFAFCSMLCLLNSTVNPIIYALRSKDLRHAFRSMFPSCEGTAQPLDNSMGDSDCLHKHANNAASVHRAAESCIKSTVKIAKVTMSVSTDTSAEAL
Sequence of Gamma-aminobutyric acid receptor subunit alpha-1 (P62813 whole entry): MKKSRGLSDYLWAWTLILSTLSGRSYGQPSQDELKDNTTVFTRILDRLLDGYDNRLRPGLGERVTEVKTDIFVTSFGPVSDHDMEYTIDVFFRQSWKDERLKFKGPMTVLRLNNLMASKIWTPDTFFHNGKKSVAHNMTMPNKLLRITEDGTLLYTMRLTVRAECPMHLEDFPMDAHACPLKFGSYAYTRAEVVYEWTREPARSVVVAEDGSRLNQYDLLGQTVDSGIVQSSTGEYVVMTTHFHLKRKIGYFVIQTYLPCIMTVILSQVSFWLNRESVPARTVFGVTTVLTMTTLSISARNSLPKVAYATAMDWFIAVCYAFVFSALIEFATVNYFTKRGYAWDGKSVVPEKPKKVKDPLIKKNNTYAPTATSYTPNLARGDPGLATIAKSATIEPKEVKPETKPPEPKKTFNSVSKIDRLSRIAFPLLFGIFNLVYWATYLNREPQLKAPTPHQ
Sequence of Sodium-dependent noradrenaline transporter (P23975 whole entry): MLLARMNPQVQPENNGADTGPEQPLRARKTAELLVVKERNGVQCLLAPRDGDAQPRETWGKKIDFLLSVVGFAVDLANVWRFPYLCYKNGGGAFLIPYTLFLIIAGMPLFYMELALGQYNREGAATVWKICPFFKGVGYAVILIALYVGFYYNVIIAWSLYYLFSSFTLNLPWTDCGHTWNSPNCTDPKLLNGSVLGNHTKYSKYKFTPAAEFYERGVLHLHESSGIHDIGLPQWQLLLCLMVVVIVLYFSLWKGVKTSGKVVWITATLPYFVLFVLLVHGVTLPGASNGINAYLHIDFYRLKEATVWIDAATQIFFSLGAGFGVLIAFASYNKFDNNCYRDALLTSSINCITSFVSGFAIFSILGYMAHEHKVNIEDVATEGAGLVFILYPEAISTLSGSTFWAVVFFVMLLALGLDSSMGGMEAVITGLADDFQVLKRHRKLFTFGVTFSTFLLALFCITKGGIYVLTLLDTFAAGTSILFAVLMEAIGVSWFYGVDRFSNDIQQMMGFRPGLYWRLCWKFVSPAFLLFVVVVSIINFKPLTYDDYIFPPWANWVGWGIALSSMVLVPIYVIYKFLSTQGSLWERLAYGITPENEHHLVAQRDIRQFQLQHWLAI

`CC1=C(C(=O)OC(C)C)C(c2cccc([N+](=O)[O-])c2)C(C(=O)OC2CN(C(c3ccccc3)c3ccccc3)C2)=C(N)N1` (stereo not drawn) [AZELNIDIPINE] showed an AC50 [1] greater than 30 µM, an AC50 [2] greater than 30 µM and an AC50 [3] of 5.8 µM. The AC50 [4] was 0.092 µM, the AC50 [5] was greater than 30 µM and the AC50 [6] was greater than 30 µM. For the same molecule, the AC50 [7] was greater than 30 µM, the AC50 [8] was greater than 30 µM and the AC50 [9] was 12 µM. The AC50 [10] was greater than 30 µM and the AC50 [11] was greater than 3 µM.

In the case of `CC(O)(CS(=O)(=O)c1ccc(F)cc1)C(=O)Nc1ccc(C#N)c(C(F)(F)F)c1` (stereo not drawn) [BICALUTAMIDE], the AC50 [12] is reported as greater than 10 µM, the AC50 [1] is reported as greater than 30 µM and the AC50 [2] is reported as greater than 30 µM. The AC50 [3] was greater than 30 µM, the AC50 [4] was greater than 10 µM and the AC50 [5] was greater than 30 µM. The AC50 [7] was greater than 10 µM, the AC50 [8] was greater than 30 µM and the AC50 [9] was greater than 30 µM. It also gave an AC50 [10] greater than 30 µM, an AC50 [11] greater than 30 µM and an AC50 [13] of 0.46 µM.

Work on `NC[C@H]1CC[C@H](C(=O)Oc2ccc(CCC(=O)O)cc2)CC1` [CETRAXATE] yielded an AC50 [12] greater than 30 µM, an AC50 [7] greater than 30 µM and an AC50 [8] greater than 30 µM. For the same molecule, the AC50 [13] was greater than 30 µM.

`CN1CCCN(C(c2ccccc2)c2ccc(Cl)cc2)CC1` (stereo not drawn) [HOMOCHLORCYCLIZINE] showed an AC50 [13] greater than 30 µM.

In the case of `CC(=O)OCC(=O)[C@@]1(O)CC[C@H]2[C@@H]3CCC4=CC(=O)CC[C@]4(C)[C@H]3[C@@H](O)C[C@@]21C` [HYDROCORTISONE ACETATE], the AC50 [13] is reported as 7.67 µM.

`CC(COc1ccccc1)NC(C)C(O)c1ccc(O)cc1` (stereo not drawn) [ISOXSUPRINE] was tested, and the AC50 [13] was greater than 30 µM.

Molecule `O=C(CCC/C=C\C[C@@H]1[C@@H](CC[C@@H](O)CCc2ccccc2)[C@H](O)C[C@@H]1O)OCCCCO[N+](=O)[O-]` [LATANOPROSTENE BUNOD] has an AC50 [13] greater than 30 µM.

`Cc1oc(=O)oc1COC(=O)[C@@H]1N2C(=O)[C@@H](NC(=O)[C@H](N)c3ccccc3)[C@H]2SC1(C)C` [LENAMPICILLIN] gave an AC50 [13] greater than 30 µM.

Work on `COc1ccc(OC)c(C(O)C(C)N)c1` (stereo not drawn) [METHOXAMINE] yielded an AC50 [13] greater than 30 µM.

`CC1(CCN2CCCCC2)C(=O)CCc2ccccc21` (stereo not drawn) [NEPINALONE] gave an AC50 [13] greater than 30 µM.

In the case of `COC(=O)C[C@](O)(CCCC(C)(C)O)C(=O)O[C@@H]1C(OC)=C[C@]23CCCN2CCc2cc4c(cc2[C@H]13)OCO4` [OMACETAXINE MEPESUCCINATE], the AC50 [13] is reported as greater than 30 µM.

`COc1cccc(C(=O)CCN[C@@H](C)[C@H](O)c2ccccc2)c1` [OXYFEDRINE] showed an AC50 [13] greater than 30 µM.

In the case of `CC[N+](C)(CC)CCOC(=O)C(O)(c1ccccc1)C1CCCCC1` (stereo not drawn) [OXYPHENONIUM], the AC50 [13] is reported as greater than 30 µM.

Molecule `O=C1c2cccc3c2[C@H](CCC3)CN1[C@@H]1CN2CCC1CC2` [PALONOSETRON] has an AC50 [1] greater than 30 µM, an AC50 [2] greater than 30 µM and an AC50 [3] greater than 30 µM. It also gave an AC50 [4] greater than 30 µM, an AC50 [5] greater than 30 µM and an AC50 [6] greater than 30 µM. The AC50 [7] was greater than 30 µM, the AC50 [9] was greater than 30 µM and the AC50 [10] was greater than 30 µM. For the same molecule, the AC50 [11] was greater than 30 µM.

`C[C@@H]1C[C@H]2[C@@H]3C[C@H](F)C4=CC(=O)C=C[C@]4(C)[C@H]3[C@@H](O)C[C@]2(C)[C@@]1(O)C(=O)CO` [PARAMETHASONE] gave an AC50 [13] of 5.1 µM.
